# Laboratory results from patent publication US20250059194A1, “ULK1 AND ULK2 INHIBITORS” (Board of Trustees of Michigan State University, priority 2021, published 2025).
# Structures can show the parent of a compound that is named as a salt.
# Columns and labels:
# Cell = Cell EC50; format: cell-based
# ULK1 = ULK1 (Homo sapiens (Human), UniProt O75385); assay: ULK1 IC50; format: biochemical
# Kinetic Solubility = format: physicochemical; details: kinetic from dmso stock
# ULK2 = ULK2 (Homo sapiens (Human), UniProt Q8IYT8); assay: ULK2 IC50; format: biochemical
# Chain of ULK2 (Q8IYT8 whole entry): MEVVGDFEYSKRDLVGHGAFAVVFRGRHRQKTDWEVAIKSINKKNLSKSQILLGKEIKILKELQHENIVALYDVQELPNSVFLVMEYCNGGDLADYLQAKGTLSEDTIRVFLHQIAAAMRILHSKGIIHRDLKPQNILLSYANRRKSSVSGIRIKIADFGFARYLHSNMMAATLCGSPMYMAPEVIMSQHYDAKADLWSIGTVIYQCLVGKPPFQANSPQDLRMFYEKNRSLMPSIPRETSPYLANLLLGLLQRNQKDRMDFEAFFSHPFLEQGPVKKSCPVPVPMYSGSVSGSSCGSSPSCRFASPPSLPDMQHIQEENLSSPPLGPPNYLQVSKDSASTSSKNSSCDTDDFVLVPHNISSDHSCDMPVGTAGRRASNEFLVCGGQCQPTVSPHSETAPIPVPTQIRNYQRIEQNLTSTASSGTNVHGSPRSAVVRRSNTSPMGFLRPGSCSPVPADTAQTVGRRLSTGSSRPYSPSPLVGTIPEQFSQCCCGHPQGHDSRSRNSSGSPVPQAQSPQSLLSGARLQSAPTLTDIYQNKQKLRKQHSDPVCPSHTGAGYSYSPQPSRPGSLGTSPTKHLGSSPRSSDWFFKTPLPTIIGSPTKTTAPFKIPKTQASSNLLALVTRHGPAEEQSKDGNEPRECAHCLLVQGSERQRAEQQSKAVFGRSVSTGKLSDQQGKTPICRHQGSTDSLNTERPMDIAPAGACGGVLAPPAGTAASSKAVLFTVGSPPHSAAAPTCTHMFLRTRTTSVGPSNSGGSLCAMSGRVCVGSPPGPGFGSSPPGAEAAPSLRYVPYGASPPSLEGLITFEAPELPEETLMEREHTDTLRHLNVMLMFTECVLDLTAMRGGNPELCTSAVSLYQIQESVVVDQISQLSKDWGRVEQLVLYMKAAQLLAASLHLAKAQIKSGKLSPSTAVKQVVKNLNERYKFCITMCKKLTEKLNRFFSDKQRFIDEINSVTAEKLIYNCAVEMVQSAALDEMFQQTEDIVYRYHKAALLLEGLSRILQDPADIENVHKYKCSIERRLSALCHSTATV
# Chain of ULK1 (O75385 whole entry): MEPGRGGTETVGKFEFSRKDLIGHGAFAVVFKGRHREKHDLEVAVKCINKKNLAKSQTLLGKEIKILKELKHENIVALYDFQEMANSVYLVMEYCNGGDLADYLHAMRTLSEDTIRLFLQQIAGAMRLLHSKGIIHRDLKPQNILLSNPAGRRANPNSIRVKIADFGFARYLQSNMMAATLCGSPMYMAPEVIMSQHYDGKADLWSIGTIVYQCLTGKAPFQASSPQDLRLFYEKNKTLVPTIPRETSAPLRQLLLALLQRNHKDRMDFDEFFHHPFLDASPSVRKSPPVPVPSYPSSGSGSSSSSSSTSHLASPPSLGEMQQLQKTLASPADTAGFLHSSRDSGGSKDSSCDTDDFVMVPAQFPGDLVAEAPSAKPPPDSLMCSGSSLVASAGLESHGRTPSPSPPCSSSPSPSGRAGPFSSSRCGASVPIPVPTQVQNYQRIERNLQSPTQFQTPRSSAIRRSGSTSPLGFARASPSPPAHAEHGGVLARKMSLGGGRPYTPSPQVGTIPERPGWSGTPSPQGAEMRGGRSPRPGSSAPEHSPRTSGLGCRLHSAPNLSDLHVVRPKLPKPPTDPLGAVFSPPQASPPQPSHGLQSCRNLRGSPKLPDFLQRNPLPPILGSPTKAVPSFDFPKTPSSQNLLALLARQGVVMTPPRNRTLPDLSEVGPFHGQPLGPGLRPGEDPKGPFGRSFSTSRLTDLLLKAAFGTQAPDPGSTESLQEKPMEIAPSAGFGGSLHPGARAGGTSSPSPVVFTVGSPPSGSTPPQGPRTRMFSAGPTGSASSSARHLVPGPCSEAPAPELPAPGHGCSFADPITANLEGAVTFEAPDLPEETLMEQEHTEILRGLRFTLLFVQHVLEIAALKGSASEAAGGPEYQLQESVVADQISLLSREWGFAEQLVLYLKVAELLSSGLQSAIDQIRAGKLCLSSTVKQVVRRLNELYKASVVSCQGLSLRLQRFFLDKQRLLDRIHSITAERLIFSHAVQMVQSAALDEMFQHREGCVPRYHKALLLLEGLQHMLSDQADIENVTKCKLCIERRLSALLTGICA
SMILES,EC50 (Cell),IC50 (ULK1),solubility kinetic (Kinetic Solubility),IC50 (ULK2)
CCC(CC)NC(=O)c1cc(-c2cnn3cc(N4CCC(NC(=O)OC(C)(C)C)CC4)cnc23)cs1,> 1000 nM,50 to 99 nM,–,–
O=C(N[C@@H](C1CC1)C(F)(F)F)c1cc(-c2cnn3cc(Nc4ccc(F)cc4)cnc23)cs1,–,1 to 49 nM,–,–
CCC(NC(=O)c1cc(-c2cnn3cc(Nc4ccccc4)cnc23)cs1)C1CC1 (stereo not drawn),–,1 to 49 nM,–,–
CC[C@H](NC(=O)c1cc(-c2cnn3cc(Nc4ccccc4)cnc23)cs1)C(F)(F)F,–,1 to 49 nM,–,–
O=C(N[C@@H](C1CC1)C(F)(F)F)c1cc(-c2cnn3cc(Nc4ccccc4)cnc23)cs1,–,1 to 49 nM,–,–
O=C(N[C@@H](C1CC1)C(F)(F)F)c1cc(-c2cnn3cc(N4CCNCC4)cnc23)cs1,–,1 to 49 nM,–,–
"CC(C)(C)OC(=O)N[C@@H]1CCCC[C@@H]1NC(=O)c1cc(-c2cnn3cc(N4CCN(C(=O)OC(C)(C)C)CC4)cnc23)cs1 [tert-butyl 4-[3-(5-{[(1S,2R)-2-{[(tert-butoxy)carbonyl]amino}cyclohexyl]carbamoyl}thiophen-3-yl)pyrazolo[1,5-a]pyrimidin-6-yl]piperazine-1-carboxylate]",–,100 to 499 nM,–,500 to 1000 nM

# Further lines, results first:
EC50 (Cell),IC50 (ULK1),solubility kinetic (Kinetic Solubility),IC50 (ULK2),SMILES
–,1 to 49 nM,–,–,NC1CCN(c2cnc3c(-c4csc(C(=O)N[C@@H](C5CC5)C(F)(F)F)c4)cnn3c2)CC1
–,500 to 1000 nM,–,–,"CCC(CC)NC(=O)c1cc(-c2cnn3cc(-n4ccccc4=O)cnc23)cs1 [4-[6-(2-oxo-1,2-dihydropyridin-1-yl)pyrazolo[1,5-a]pyrimidin-3-yl]-N-(pentan-3-yl)thiophene-2-carboxamide]"
100 to 499 nM,1 to 49 nM,203 µM,50 to 99 nM,"CCC(CC)NC(=O)c1cc(-c2cnn3cc(N4CCC(N)CC4)cnc23)cs1 [4-[6-(4-aminopiperidin-1-yl)pyrazolo[1,5-a]pyrimidin-3-yl]-N-(pentan-3-yl)thiophene-2-carboxamide hydrochloride]"
–,100 to 499 nM,–,–,"CCC(CC)NC(=O)c1cc(-c2cnn3cc(NC4CC4)cnc23)cs1 [4-[6-(cyclopropylamino)pyrazolo[1,5-a]pyrimidin-3-yl]-N-(pentan-3-yl)thiophene-2-carboxamide]"
–,100 to 499 nM,–,500 to 1000 nM,"CC(C)(CO)NC(=O)c1cc(-c2cnn3cc(N4CCNCC4)cnc23)cs1 [N-(1-hydroxy-2-methylpropan-2-yl)-4-[6-(piperazin-1-yl)pyrazolo[1,5-a]pyrimidin-3-yl]thiophene-2-carboxamide hydrochloride]"
100 to 499 nM,1 to 49 nM,–,1 to 49 nM,"CCC(CC)NC(=O)c1cc(-c2cnn3cc(Nc4ccccc4)cnc23)cs1 [N-(pentan-3-yl)-4-[6-(phenylamino)pyrazolo[1,5-a]pyrimidin-3-yl]thiophene-2-carboxamide]"
–,500 to 1000 nM,–,–,"CCC(CC)NC(=O)c1cc(-c2cnn3cc(N4CCCC4)cnc23)cs1 [N-(pentan-3-yl)-4-[6-(pyrrolidin-1-yl)pyrazolo[1,5-a]pyrimidin-3-yl]thiophene-2-carboxamide]"
1 to 49 nM,1 to 49 nM,> 300 µM,1 to 49 nM,"N[C@@H]1CCCC[C@@H]1NC(=O)c1cc(-c2cnn3cc(N4CCNCC4)cnc23)cs1 [N-[(1S,2R)-2-aminocyclohexyl]-4-[6-(piperazin-1-yl)pyrazolo[1,5-a]pyrimidin-3-yl]thiophene-2-carboxamide dihyrochloride]"
500 to 1000 nM,50 to 99 nM,> 300 µM,–,CCC(CC)NC(=O)c1cc(-c2cnn3cc(N4CCNCC4)cnc23)cs1 [hydrochloride]
–,1 to 49 nM,–,100 to 499 nM,"CC(C)(CO)NC(=O)c1cc(-c2cnn3cc(N4CCN(C(=O)OC(C)(C)C)CC4)cnc23)cs1 [tert-butyl 4-(3-{5-[(1-hydroxy-2-methylpropan-2-yl)carbamoyl]thiophen-3-yl}pyrazolo[1,5-a]pyrimidin-6-yl) piperazine-1-carboxylate]"
> 1000 nM,1 to 49 nM,–,–,"CCC(CC)NC(=O)c1cc(-c2cnn3cc(N4CCN(C(=O)OC(C)(C)C)CC4)cnc23)cs1 [tert-butyl 4-(3-{5-[(pentan-3-yl)carbamoyl]thiophen-3-yl}pyrazolo[1,5-a]pyrimidin-6-yl) piperazine-1-carboxylate]"
